Experimental data as given in patent US10493254B2, “Permeant delivery system and methods for use thereof” (priority 2008, dated 2019).

Assay: Exenatide delivery from liquid patch with permeability enhancer through microporated abdomen
Conditions: hairless rat abdomen microporated; patch with 20 OuL solution of exenatide (10.5 mg/mL) and agent (3% w/v); fresh solution every four hours

## O=C([O-])CC(O)(CC(=O)[O-])C(=O)O.[Na+].[Na+] [disodium citrate]
  exenatide levels over 24 hours: roughly steady levels
